Among the data in patent US9951088B2, “D2 receptor modulators and methods of use thereof in the treatment of diseases and disorders” (SUNOVION PHARMACEUTICALS INC., priority 2012, dated 2018) are IC50, Emax and EC50 values, retold here.

SMILES strings stand for the structures.

What is called IC50 is the concentration that inhibits the measured activity by half. The term EC50 denotes the concentration giving half of the maximal effect. Low readings indicate a more potent agent, high ones a less potent agent.

Assay [1] addresses T1, long isoform of human D2 receptor (Homo sapiens, UniProt P14416). In words: Arrestin Antagonist Assay (DRD2L PathHunter CHO-K1 cells, vs EC80 dopamine). Particulars: for Emax: CHO-K1, read-out: β-arrestin (antagonist mode) Imax.
Description: Cell Lines: Activities of the compounds were assessed using a Chinese Hamster Ovary (CHO—K1) cell line that recombinantly expressed the long isoform of human D2 receptor (DRD2L PathHunter cells). The D2 receptor DNA sequence was modified to contain a “ProLink” at its C-terminus which allowed complementation with an “enzyme acceptor” (EA)-tagged β-arrestin protein. The recruitment of the O-arrestin by the D2 receptor led to complementation of the ProLink and EA and formation of active β-galactosidase which generated a D2-specific signal that was measured.
Arrestin Antagonist Assay: One day prior to testing, a vial of high density stock of DRD2L PathHunter cells was thawed, and 1×10^7 cells diluted into 40 mL of growth media (Ham's F12/10% HI FBS/1% PSG). 20 μL cells per well were seeded directly into assay plates, and the plates were allowed to rest for 1 h at RT before incubating in a plate incubator overnight.
The plate was incubated for 30 min at 37° C. 15 μL PathHunter detection reagent was added to each well of the assay plate, which was then covered and incubated for 1 h at RT. The plate was read on an Envision reader using the Luminescence protocol, and the data were exported for analysis.
The IC50 values (concentration producing a half-maximal inhibitory response) were determined by non-linear regression analysis of the concentration-response curves.
The target in assay [2] is T1, long isoform of human D2 receptor. As to the kind of experiment: cAMP HTRF Agonist Assay (DRD2L PathHunter CHO-K1 cells, forskolin-stimulated). In general terms: TR-FRET usually uses a lanthanide donor and a delayed reading to cut background.
Assay [3] shares this target. As to the kind of experiment: Arrestin Agonist Assay (DRD2L PathHunter CHO-K1 cells, β-arrestin recruitment). (Activated receptors often draw arrestin, which recruitment assays turn into a signal.)
Setting [4] is: CHO-K1, read-out: cAMP (agonist mode) Emax.
[5] abbreviates: CHO-K1, read-out: β-arrestin (agonist mode) Emax.
Where [6] appears, read: CHO-K1, read-out: Emax in cAMP agonist assay.
Where [7] appears, read: CHO-K1, read-out: Emax in β-arrestin agonist assay.

T1 sequence (P14416 whole entry, canonical isoform): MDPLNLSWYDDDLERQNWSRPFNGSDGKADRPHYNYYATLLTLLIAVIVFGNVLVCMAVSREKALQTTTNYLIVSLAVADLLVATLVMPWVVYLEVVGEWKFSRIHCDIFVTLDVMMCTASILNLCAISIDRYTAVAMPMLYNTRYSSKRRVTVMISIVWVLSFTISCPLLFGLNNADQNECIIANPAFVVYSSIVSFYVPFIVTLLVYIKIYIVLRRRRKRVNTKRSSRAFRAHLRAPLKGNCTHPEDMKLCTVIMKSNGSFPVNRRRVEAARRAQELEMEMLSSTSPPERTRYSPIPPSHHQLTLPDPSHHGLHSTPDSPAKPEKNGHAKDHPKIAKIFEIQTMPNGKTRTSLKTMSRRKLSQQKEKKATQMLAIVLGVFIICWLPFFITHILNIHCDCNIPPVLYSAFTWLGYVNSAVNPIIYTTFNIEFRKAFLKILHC

Consider `CC(=O)Nc1cccc(OCCCCN2CCc3ccccc3C2)n1` [Compound 40, N-(6-(4-(3,4-dihydroisoquinolin-2(1H)-yl)butoxy)pyridin-2-yl)acetamide], for which the values for the IC50 in assay [1] and in assay [2] were 100 to 1000 nM and over 10000 nM, respectively. Further, the Emax in assay [1] is over 75%; in assay [2] (setting [4]), under 10%; in assay [3] (setting [5]), under 10%. Besides, the EC50 in assay [3] was over 10000 nM.
As to `O=C1CCc2ccc(OCCCCN3CCc4ccsc4C3)nc2N1` [Compound 70, 7-(4-(4,5-dihydrothieno[2,3-c]pyridin-6(7H)-yl)butoxy)-3,4-dihydro-1,8-naphthyridin-2(1H)-one], the values for the IC50 in assay [1] and in assay [2] were 100 to 1000 nM and over 10000 nM, respectively. Moreover, the Emax was over 75% in assay [1], under 10% in assay [2] (setting [4]) and under 10% in assay [3] (setting [5]). This compound also registered an EC50 in assay [3] of over 10000 nM.
Take `Oc1cccc2ccc(OCCCCN3CCc4ccsc4C3)nc12` [Compound 19, 2-(4-(4,5-dihydrothieno[2,3-c]pyridin-6(7H)-yl)butoxy)quinolin-8-ol]: the IC50 is 1000 to 10000 nM in assay [1] and over 10000 nM in assay [2]. Also, the Emax in assay [1] is over 75%; in assay [2] (setting [4]) it was under 10%; in assay [3] (setting [5]) it was under 10%. For the same compound, the EC50 in assay [3] is over 10000 nM.
As to `c1cc(OCCCCN2CCc3ccccc3C2)nc(-c2cc[nH]n2)c1` [Compound 44, 2-(4-((6-(1H-pyrazol-3-yl)pyridin-2-yl)oxy)butyl)-1,2,3,4-tetrahydroisoquinoline], the IC50 was 10 to 100 nM in assay [1] and under 10 nM in assay [2]. Moreover, the Emax was over 75% in assay [1], 10 to 25% in assay [2] (setting [4]) and 10 to 25% in assay [3] (setting [5]). Further, in assay [3], the EC50 was under 10 nM.
For `O=C1CCc2ccc(OCCCCN3CCc4ncncc4C3)cc2N1` [Compound 23, 7-(4-(7,8-dihydropyrido[4,3-d]pyrimidin-6(5H)-yl)butoxy)-3,4-dihydroquinolin-2(1H)-one], the results for the IC50 in assay [1] and in assay [2] were 1000 to 10000 nM and 100 to 1000 nM, respectively. For the same compound, the Emax was in the range of 25 to 50% in assay [1], 50 to 75% in assay [2] (setting [4]) and 10 to 25% in assay [3] (setting [5]). The EC50 in assay [3] was in the range of 100 to 1000 nM.
Turning to `Oc1cccc2ccc(OCCCCN3CCc4ccccc4C3)nc12` [Compound 12, 2-(4-(3,4-dihydroisoquinolin-2(1H)-yl)butoxy)quinolin-8-ol], the figures for the IC50 in assay [1] and in assay [2] were 1000 to 10000 nM and over 10000 nM, respectively. Further, the Emax is over 75% in assay [1], under 10% in assay [2] (setting [4]) and 10 to 25% in assay [3] (setting [5]). Further, the concentration for a half-maximal effect (EC50) in assay [3] fell in the range of 10 to 100 nM.
Consider `O=C1CCc2ccc(OCCCCN3CCc4nccnc4C3)cc2N1` [Compound 25, 7-(4-(7,8-dihydropyrido[3,4-b]pyrazin-6(5H)-yl)butoxy)-3,4-dihydroquinolin-2(1H)-one], for which the IC50 in assay [1] and in assay [2] was 1000 to 10000 nM each time. Besides, the Emax in assay [1] was 25 to 50%; in assay [2] (setting [4]), 50 to 75%; in assay [3] (setting [5]) it was 25 to 50%. Also, the EC50 in assay [3] lay within 100 to 1000 nM.
In the case of `N#Cc1cccnc1N1CCN(CCCCOc2ccc3cccc(O)c3n2)CC1` [Compound 22, 2-(4-(4-((8-hydroxyquinolin-2-yl)oxy)butyl)piperazin-1-yl)nicotinonitrile], the figures for the IC50 in assay [1] and in assay [2] were 100 to 1000 nM and under 10 nM, respectively. Besides, the Emax in assay [1], in assay [2] (setting [4]) and in assay [3] (setting [5]) was 25 to 50% each time. The EC50 in assay [3] is 10 to 100 nM.
In the case of `O=C1CCc2ccc(OCCCCN3CCc4ccsc4C3)cc2N1` [Compound 28, 7-(4-(4,5-dihydrothieno[2,3-c]pyridin-6(7H)-yl)butoxy)-3,4-dihydroquinolin-2(1H)-one], the IC50 in assay [1] is 100 to 1000 nM; in assay [2], under 10 nM. Also, the Emax in assay [1] was over 75%; in assay [2] (setting [4]) it was 10 to 25%; in assay [3] (setting [5]), under 10%. This compound also yielded an EC50 in assay [3] of over 10000 nM.
Regarding `c1ccc(N2CCN(CCCCOc3ccc4cn[nH]c4n3)CC2)nc1` [Compound 4, 6-(4-(4-(pyridin-2-yl)piperazin-1-yl)butoxy)-1H-pyrazolo[3,4-b]pyridine], the IC50 is over 10000 nM in assay [1] and under 10 nM in assay [2]. The figures for the Emax in assay [1], in assay [2] (setting [4]) and in assay [3] (setting [5]) were under 10%, over 75% and over 75%, respectively. For the same compound, the EC50 in assay [3] was 10 to 100 nM.
Turning to `CCOc1ccccc1N1CCN(CCCCOc2cccc(-c3cc[nH]n3)n2)CC1` [Compound 49, 1-(4-((6-(1H-pyrazol-3-yl)pyridin-2-yl)oxy)butyl)-4-(2-ethoxyphenyl)piperazine], the IC50 in assay [1] and in assay [2] was under 10 nM each time. In addition, the Emax in assay [1] fell in the range of 50 to 75%; in assay [2] (setting [4]), 50 to 75%; in assay [3] (setting [5]), 10 to 25%. This compound also had an EC50 in assay [3] of under 10 nM.
With `O=C1NCCc2ccc(OCCCCN3CCc4ccccc4C3)nc2N1` [Compound 83, 8-(4-(3,4-dihydroisoquinolin-2(1H)-yl)butoxy)-4,5-dihydro-1H-pyrido[2,3-d][1,3]diazepin-2(3H)-one], the results for the IC50 in assay [1] and in assay [2] were 10 to 100 nM and over 10000 nM, respectively. Also, the Emax in assay [1] was over 75%; in assay [2] (setting [4]) it was under 10%; in assay [3] (setting [5]) it was under 10%. Further, the EC50 in assay [3] was over 10000 nM.
`c1ccc2c(N3CCN(CCCCOc4ccc5cn[nH]c5c4)CC3)cccc2c1` [Compound 92, 6-(4-(4-(naphthalen-1-yl)piperazin-1-yl)butoxy)-1H-indazole]: the IC50 in assay [1] and in assay [2] was 10 to 100 nM throughout. For the same compound, the Emax lay within 50 to 75% in assay [1], 25 to 50% in assay [2] (setting [4]) and 25 to 50% in assay [3] (setting [5]). Besides, in assay [3], the EC50 is under 10 nM.
Consider `O=C1CCc2ccc(OCCCCN3CCc4ccccc4C3)cc2N1` [Compound 91, 7-(4-(3,4-dihydroisoquinolin-2(1H)-yl)butoxy)-3,4-dihydroquinolin-2(1H)-one], for which the values for the IC50 in assay [1] and in assay [2] were 10 to 100 nM and under 10 nM, respectively. Moreover, the Emax in assay [1] is over 75%; in assay [2] (setting [4]) it was 25 to 50%; in assay [3] (setting [5]) it was 10 to 25%. Also, the EC50 in assay [3] was under 10 nM.
On to `Clc1cccc(N2CCN(CCCCOc3ccc4cn[nH]c4c3)CC2)c1` [Compound 98, 6-(4-(4-(3-chlorophenyl)piperazin-1-yl)butoxy)-1H-indazole], for which the IC50 in assay [1] was 100 to 1000 nM; in assay [2], 10 to 100 nM. Besides, the Emax in assay [1] fell in the range of 25 to 50%; in assay [2] (setting [4]), 50 to 75%; in assay [3] (setting [5]), 25 to 50%. This compound also displayed a half-maximal effective concentration (EC50) in assay [3] of 10 to 100 nM.
For the compound `O=C1CCc2ccc(OCCCCN3CCc4cc(Cl)ccc4C3)nc2N1` [Compound 75, 7-(4-(6-chloro-3,4-dihydroisoquinolin-2(1H)-yl)butoxy)-3,4-dihydro-1,8-naphthyridin-2(1H)-one], the values for the IC50 in assay [1] and in assay [2] were 10 to 100 nM and under 10 nM, respectively. The Emax in assay [1] is over 75%; in assay [2] (setting [4]), 10 to 25%; in assay [3] (setting [5]) it was under 10%. The compound further had an EC50 in assay [3] of over 10000 nM.
On to `COc1ccc2c(c1)CCN(CCCCOc1ccc3cccc(O)c3n1)C2` [Compound 13, 2-(4-(6-methoxy-3,4-dihydroisoquinolin-2(1H)-yl)butoxy)quinolin-8-ol], for which the IC50 in assay [1] is 1000 to 10000 nM; in assay [2], over 10000 nM. Also, the figures for the Emax in assay [1], in assay [2] (setting [4]) and in assay [3] (setting [5]) were over 75%, under 10% and 10 to 25%, respectively. The same compound displayed an EC50 in assay [3] of under 10 nM.
For `COc1ccc2c(c1)CCN(CCCCOc1ccc3ccc(=O)[nH]c3n1)C2` [Compound 55, 7-(4-(6-methoxy-3,4-dihydroisoquinolin-2(1H)-yl)butoxy)-1,8-naphthyridin-2(1H)-one], the IC50 in assay [1] and in assay [2] was under 10 nM throughout. For the same compound, the Emax in assay [1] was over 75%; in assay [2] (setting [4]) it was 25 to 50%; in assay [3] (setting [5]), 10 to 25%. This compound also had an EC50 in assay [3] of under 10 nM.
On to `Cc1ccc2c(c1)CN(CCCCOc1ccc3ccc(=O)[nH]c3n1)CC2` [Compound 65, 7-(4-(7-methyl-3,4-dihydroisoquinolin-2(1H)-yl)butoxy)-1,8-naphthyridin-2(1H)-one], for which the figures for the IC50 in assay [1] and in assay [2] were 10 to 100 nM and under 10 nM, respectively. The Emax in assay [1] was over 75%; in assay [2] (setting [4]) it was 10 to 25%; in assay [3] (setting [5]) it was under 10%. This compound returned a concentration giving a half-maximal response (EC50) in assay [3] of over 10000 nM.
`O=C1CCc2ccc(OCCCCN3CCc4nn(-c5ccccc5F)cc4C3)cc2N1` [Compound 35, 7-(4-(2-(2-fluorophenyl)-6,7-dihydro-2H-pyrazolo[4,3-c]pyridin-5(4H)-yl)butoxy)-3,4-dihydroquinolin-2(1H)-one]: the values for the IC50 in assay [1] and in assay [2] were 10 to 100 nM and over 10000 nM, respectively. Besides, the Emax in assay [1] was over 75%; in assay [2] (setting [4]), under 10%; in assay [3] (setting [5]) it was under 10%. The compound further gave an EC50 in assay [3] of over 10000 nM.
Regarding `Cn1cc2c(n1)CCN(CCCCOc1ccc3c(c1)NC(=O)CC3)C2` [Compound 24, 7-(4-(2-methyl-6,7-dihydro-2H-pyrazolo[4,3-c]pyridin-5(4H)-yl)butoxy)-3,4-dihydroquinolin-2(1H)-one], the IC50 in assay [1] was in the range of 1000 to 10000 nM; in assay [2], 10 to 100 nM. Also, the Emax in assay [1] was 25 to 50%; in assay [2] (setting [4]), over 75%; in assay [3] (setting [5]), 25 to 50%. Further, the EC50 in assay [3] lay in the range of 100 to 1000 nM.
Take `CCCN[C@H]1CCc2nc(N)sc2C1` [pramipexole, reference compound]: the Emax in assay [2] (setting [6]) and in assay [3] (setting [7]) was at least 90% throughout.
As to `CCCN(CCC)CCc1cccc2c1CC(=O)N2` [ropinirole, reference compound], the Emax in assay [2] (setting [6]) and in assay [3] (setting [7]) was at least 90% in each case.
